# Laboratory results published in US11884961B2, “DNA-glycan conjugates and methods of use” (GEORGIA STATE UNIVERSITY RESEARCH FOUNDATION, INC., priority 2017, dated 2024).
# Tests used:
# VK9 antibody = assay: Multiplex detection of DEGL against VK9 antibody by NGS; format: binding, mouse
# Method: Next, we wanted to translate the results to more promising NGS based parallel screening. Initially we tested the different concentrations of DEGL with different concentrations of VK9 antibody using the PCR and qPCR assays. We incubated 1 uM, 500 nM, 100 nM and 10 nM samples with 0.5 μL, 1 μL, and 2 μL of the VK9 antibody (0.5 μg/μL), and unbound glycans were washed out after precipitating the bound glycan-VK9 complex on protein A/G beads. Each assay was compared to the same amount of DEGL with no VK9 negative control. Then, washed beads were used as the template for the NGS analysis. Briefly, beads were diluted to 20 μL, and from this, 2 μL was used for the initial PCR amplification (18 cycles). PCR products were then purified using AMpure beads (Beckman Coulter) according to the manufacturer's protocol and used for the NGS fusion PCR to incorporate the index codes and ion-torrent NGS adapters. Now about 150 bp DNA codes, it was again purified using AMpure beads, and all barcoded samples were run through an Agilent Bioanalyzer for quality control. Samples were then pooled in equimolar concentration and adjusted to the desired 26 pM for the NGS, analyzed using ion-PGM semiconductor sequencer. Data were analyzed using ‘FASTAPTAMER’ software,[39] and an in house developed program. […]
# [1] = system: VK9, a mouse IgG anti-Globo H monoclonal antibody; assay: ELISA of biotinylated glycans captured on streptavidin against VK9; format: binding; conditions: biotinylated sugars captured on streptavidin; OD450
# Source text: (§1) Initially we validated the selected system with the conventional ELISA to confirm the antibody binding capacity and specificity of the glycans. Since sugars have low binding affinity for unmodified plastic surfaces, the binding protein, streptavidin, was used to capture biotinylated sugars. In another experiment we also tested DEGL using ELISA to see the effect of different presentation of glycans. For this assay, we coated the DEGL onto plastic surfaces directly. Both naked glycan and DEGL was tested against VK9, a mouse IgG anti-Globo H monoclonal antibody. […] We rationalize this difference in pattern to the different presentation of glycan epitope, all of the four glycans have the same terminal epitope of Fuc a1-2 Gal(b1-3 GalNAc), which is recognized by VK9 antibodies,[38] but a long DNA tag on the DEGL will give more space to the glycan antigens binding with the antibody, while normal ELISA would block the binding of the short glycans of Bb3 and Bb2. […]
# (§2) A 96-well plate (Costar® Polystyrene High Binding Plate 3590) was coated with […] of 10 ug/ml Streptavidin (Sigma) in 0.01 M PBS (pH 7.4) at 4° C. overnight. […] The plate was then read at OD450 with a plate reader (PerkinElmer®, 2030 Multilabel Reader Victor®). The result was calculated by minus OD450 value of control (no antibody).
# [2] = system: VK9, a mouse IgG anti-Globo H monoclonal antibody; assay: ELISA of DEGL (glycan-DNA codes coated with Pierce DNA coating solution) against VK9; format: binding; conditions: glycan-DNA conjugates coated directly onto plastic; OD450
# Source text: as §1, §2
substance,measurement,setting,value
Globo-H [GbH],relative enrichment in comparison with the no VK9 negative control,"VK9 antibody; biotin tagged secondary antibody, magnetic streptavidin beads, NGS",enriched
same,enrichment (NGS),"VK9 antibody; modified method with control sequence added after selection, Globo-H series+A and B glycan DEGL",selective enrichment
same,ELISA binding intensity of VK9,[1],very high binding intensities
same,ELISA binding of VK9,[2],strong binding
